Data set [1] deals with B. anthracis Ames NR-3838 spores. Details: species or system New Zealand White (NZW) rabbits. The conditions noted are these: rabbit, in vivo.
The test system is the same in data set [2]. The conditions noted are these: rabbit, in vivo.
In data set [3] the test system is B. anthracis Ames spores (NR3838). On the set-up: species or system New Zealand White (NZW) rabbits. The conditions noted are these: rabbit, in vivo.
Data set [4] concerns B. anthracis Ames NR-3838 spores. On the set-up: species or system New Zealand White (NZW) rabbits. The conditions noted are these: rabbit, in vivo. This is another data set of the same source.
Data set [5] deals with B. anthracis Ames spores (NR3838). On the set-up: species or system New Zealand White (NZW) rabbits. The conditions noted are these: rabbit, in vivo. This is another data set of the same source.
For data set [6], the system named is B. anthracis Ames NR-3838 spores. On the set-up: species or system New Zealand White (NZW) rabbits. The conditions noted are these: rabbit, in vivo. The source holds these as a separate data set.
The subject of a further data set is B. anthracis. Put plainly: microbe, parasite or virus in culture. The conditions noted are these: Bacillus anthracis. The format is cell-based.
Data set [7] relates to B. anthracis Ames NR-3838 spores. On the set-up: species or system New Zealand White (NZW) rabbits. The note with it: rabbit, in vivo. The source holds these as a separate data set.
The test system of data set [8] is B. anthracis Ames spores (NR3838). On the set-up: species or system New Zealand White (NZW) rabbits. The conditions noted are these: rabbit, in vivo. This is another data set of the same source.
Data set [9] has the same test system. Details: species or system New Zealand White (NZW) rabbits. The note with it: rabbit, in vivo. This is another data set of the same source.

Several values for one entry are separate records, joined by “and”; a condition that tells them apart may be missing. Equal entries are not always repeated.

With `CCCCCCCCCCNCCNC1(C)CC(OC2C(Oc3c4cc5cc3Oc3ccc(cc3Cl)[C@@H](O)[C@@H](NC(=O)[C@@H](CC(C)C)NC)C(=O)N[C@@H](CC(N)=O)C(=O)N[C@H]5C(=O)N[C@H]3C(=O)N[C@H](C(=O)N[C@H](C(=O)O)c5cc(O)c(CNCP(=O)(O)O)c(O)c5-c5cc3ccc5O)[C@H](O)c3ccc(c(Cl)c3)O4)OC(CO)C(O)C2O)OC(C)C1O` (some centres unmarked) [Vibativ, N^3″-[2-(decylamino)ethyl]-29-[[(phosphonomethyl)amino]methyl]vancomycin], in data set [1], the “Average Bacterial Load (cfu/g), lung” value was 1.93E+03 cfu/g and the “average bacterial load in the lung tissue, comparing only the two antibiotic-treated groups” value was “significantly (p<0.05) lower”. Besides, in data set [2], the “maximum percent weight loss” value was “significantly (p<0.05) higher” and the “peak of febrile response (core body temperature)” value was approximately 41 °C. In [3], the overall survival rate stood at 67%; the survival is 100% and 60%. The compound further had a survival in data set [4] of 100%. Moreover, the bacteremia result in [5] is “never developed bacteremia at a detectable level”. Besides, the “anthrax induced lesions (histopathology)” value in data set [6] is listed as “mitigation of anthrax induced lesions”. Besides, the MIC in the data set on B. anthracis is less than 0.0625 µg/mL. Further, in [7], the “animals positive for bacteremia” value is given as 2 out of 12 and the “average level of bacteremia, comparing only the two antibiotic-treated groups” value is given as “significantly (p<0.05) lower”. For the same compound, the “anthrax-related lesions (histopathology)” value in data set [8] is listed as “generally mitigated”.

For `C[C@H]1COc2c(N3CCN(C)CC3)c(F)cc3c(=O)c(C(=O)O)cn1c23` [Levofloxacin], the “Average Bacterial Load (cfu/g), lung” value in data set [1] came to 6.93E+03 cfu/g. The “peak of febrile response (core body temperature)” value in [2] was approximately 41 °C. Further, in data set [3], the overall survival rate is 50%; the survival was 100% and 50%. Further, in data set [4], the survival turned out to be 100%. Moreover, in data set [9], the “B. anthracis bacterial load in lymph node tissue” value is 0 cfu/g and the “B. anthracis bacterial load in spleen tissue” value was 0 cfu/g.
